{
  "source": "ChEMBL document CHEMBL4507273",
  "about": "(2021)",
  "key": {"[1]": {"target": "Tyrosine-protein kinase CSK (Homo sapiens) (UniProt P41240)", "sequence (P41240 2-450 limits assumed)": "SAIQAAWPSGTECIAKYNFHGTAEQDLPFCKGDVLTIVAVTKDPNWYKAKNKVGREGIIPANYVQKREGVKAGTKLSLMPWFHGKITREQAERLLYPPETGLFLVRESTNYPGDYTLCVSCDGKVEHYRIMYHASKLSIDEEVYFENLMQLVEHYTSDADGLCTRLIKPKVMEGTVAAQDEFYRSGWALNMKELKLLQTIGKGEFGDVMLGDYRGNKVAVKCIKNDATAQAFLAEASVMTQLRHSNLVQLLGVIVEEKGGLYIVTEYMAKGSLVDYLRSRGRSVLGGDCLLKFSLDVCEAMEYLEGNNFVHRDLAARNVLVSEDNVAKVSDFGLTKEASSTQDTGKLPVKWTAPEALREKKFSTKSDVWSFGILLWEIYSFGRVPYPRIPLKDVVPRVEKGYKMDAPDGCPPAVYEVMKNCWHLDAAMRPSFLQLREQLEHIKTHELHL", "conditions": "Compound concentration 1000.0 nM"}, "[2]": {"target": "Mitogen-activated protein kinase kinase kinase 9 (Homo sapiens) (UniProt P80192)", "conditions": "Compound concentration 1000.0 nM"}, "[3]": {"target": "SRSF protein kinase 3 (Homo sapiens) (UniProt Q9UPE1)", "sequence (Q9UPE1 whole entry)": "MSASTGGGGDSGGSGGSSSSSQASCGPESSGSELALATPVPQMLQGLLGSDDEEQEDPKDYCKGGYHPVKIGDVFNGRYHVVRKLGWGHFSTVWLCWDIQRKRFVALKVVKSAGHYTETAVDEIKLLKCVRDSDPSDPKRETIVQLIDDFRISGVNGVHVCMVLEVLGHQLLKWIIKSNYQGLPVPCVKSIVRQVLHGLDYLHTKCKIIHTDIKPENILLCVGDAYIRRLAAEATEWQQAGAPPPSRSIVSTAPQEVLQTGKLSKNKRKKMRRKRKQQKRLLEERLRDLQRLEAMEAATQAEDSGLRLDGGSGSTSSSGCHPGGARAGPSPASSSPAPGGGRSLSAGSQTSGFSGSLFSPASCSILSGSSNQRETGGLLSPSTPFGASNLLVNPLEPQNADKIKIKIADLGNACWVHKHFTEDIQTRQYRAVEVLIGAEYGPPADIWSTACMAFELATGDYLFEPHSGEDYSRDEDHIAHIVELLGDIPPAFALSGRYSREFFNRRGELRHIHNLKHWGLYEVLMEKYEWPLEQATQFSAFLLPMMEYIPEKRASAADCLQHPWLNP", "conditions": "Compound concentration 1000.0 nM"}, "[4]": {"target": "Cyclin-G-associated kinase (Homo sapiens) (UniProt O14976)", "conditions": "Compound concentration 1000.0 nM"}, "[5]": {"target": "Tyrosine-protein kinase JAK1 (Homo sapiens) (UniProt P23458)", "sequence (P23458 whole entry)": "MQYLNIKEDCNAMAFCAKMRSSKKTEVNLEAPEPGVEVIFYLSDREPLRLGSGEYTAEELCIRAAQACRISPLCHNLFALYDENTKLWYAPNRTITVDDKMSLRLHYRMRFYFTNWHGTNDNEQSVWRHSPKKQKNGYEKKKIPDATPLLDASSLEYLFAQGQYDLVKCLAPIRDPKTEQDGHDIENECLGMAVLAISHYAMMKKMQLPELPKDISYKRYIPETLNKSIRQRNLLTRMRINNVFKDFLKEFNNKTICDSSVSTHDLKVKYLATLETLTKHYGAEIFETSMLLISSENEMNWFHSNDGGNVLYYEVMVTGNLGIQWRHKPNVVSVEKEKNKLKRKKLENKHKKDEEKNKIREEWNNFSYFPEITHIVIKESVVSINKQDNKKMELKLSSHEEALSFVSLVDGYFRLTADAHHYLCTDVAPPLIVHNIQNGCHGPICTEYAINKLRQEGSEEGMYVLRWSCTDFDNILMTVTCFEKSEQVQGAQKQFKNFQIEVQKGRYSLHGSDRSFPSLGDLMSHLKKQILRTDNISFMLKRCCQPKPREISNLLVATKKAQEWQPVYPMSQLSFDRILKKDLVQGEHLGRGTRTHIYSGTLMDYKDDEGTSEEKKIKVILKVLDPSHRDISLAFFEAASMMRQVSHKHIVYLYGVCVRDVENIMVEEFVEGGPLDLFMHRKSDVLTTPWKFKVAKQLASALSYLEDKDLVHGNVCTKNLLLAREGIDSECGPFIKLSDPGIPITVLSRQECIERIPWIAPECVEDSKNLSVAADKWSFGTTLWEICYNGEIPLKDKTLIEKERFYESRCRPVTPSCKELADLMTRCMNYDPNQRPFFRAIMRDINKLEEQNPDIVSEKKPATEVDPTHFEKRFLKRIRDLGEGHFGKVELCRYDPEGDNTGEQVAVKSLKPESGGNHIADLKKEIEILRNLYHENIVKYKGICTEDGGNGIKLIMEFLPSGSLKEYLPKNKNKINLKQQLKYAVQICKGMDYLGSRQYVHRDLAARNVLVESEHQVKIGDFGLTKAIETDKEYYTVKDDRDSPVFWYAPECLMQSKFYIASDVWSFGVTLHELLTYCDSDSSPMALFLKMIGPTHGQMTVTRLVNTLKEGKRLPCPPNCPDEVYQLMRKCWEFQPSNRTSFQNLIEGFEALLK", "conditions": "Compound concentration 1000.0 nM"}, "[6]": {"test_system": "Epidermal growth factor receptor (Homo sapiens), P00533 [G719S]", "conditions": "Compound concentration 1000.0 nM"}, "[7]": {"test_system": "Receptor-type tyrosine-protein kinase FLT3 (Homo sapiens), P36888 [UNDEFINED MUTATION]", "conditions": "Compound concentration 1000.0 nM"}, "[8]": {"target": "T1, 5-hydroxytryptamine receptor 1A (Homo sapiens) (UniProt P08908)", "T1 sequence (whole entry)": "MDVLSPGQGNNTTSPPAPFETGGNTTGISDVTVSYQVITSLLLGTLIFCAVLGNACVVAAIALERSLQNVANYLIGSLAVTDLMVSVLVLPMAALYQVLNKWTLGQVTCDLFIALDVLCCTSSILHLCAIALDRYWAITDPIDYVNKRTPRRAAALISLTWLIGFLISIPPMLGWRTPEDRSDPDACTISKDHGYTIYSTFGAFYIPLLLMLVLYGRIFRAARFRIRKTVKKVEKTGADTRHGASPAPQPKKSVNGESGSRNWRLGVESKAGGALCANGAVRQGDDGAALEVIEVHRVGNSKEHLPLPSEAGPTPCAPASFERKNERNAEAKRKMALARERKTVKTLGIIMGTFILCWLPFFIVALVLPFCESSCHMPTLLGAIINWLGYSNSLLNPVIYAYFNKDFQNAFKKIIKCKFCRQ", "conditions": "Compound concentration 10.0 uM"}, "[9]": {"target": "Tyrosine-protein kinase Lck (Homo sapiens) (UniProt P06239)", "sequence (P06239 2-509 limits assumed)": "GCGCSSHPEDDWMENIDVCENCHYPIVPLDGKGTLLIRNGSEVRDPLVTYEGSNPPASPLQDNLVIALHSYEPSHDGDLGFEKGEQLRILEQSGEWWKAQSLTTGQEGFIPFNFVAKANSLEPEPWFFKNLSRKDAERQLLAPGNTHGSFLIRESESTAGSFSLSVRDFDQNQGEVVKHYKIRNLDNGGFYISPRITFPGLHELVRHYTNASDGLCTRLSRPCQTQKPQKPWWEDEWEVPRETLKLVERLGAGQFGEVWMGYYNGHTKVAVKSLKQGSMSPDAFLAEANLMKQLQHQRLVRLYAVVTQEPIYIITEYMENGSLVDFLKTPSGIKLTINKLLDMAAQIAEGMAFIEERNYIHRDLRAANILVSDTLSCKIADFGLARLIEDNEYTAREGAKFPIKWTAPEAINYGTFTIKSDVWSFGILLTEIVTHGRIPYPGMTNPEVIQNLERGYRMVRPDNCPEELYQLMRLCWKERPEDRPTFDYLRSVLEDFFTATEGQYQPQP", "conditions": "Compound concentration 1000.0 nM"}, "[10]": {"target": "Inhibitor of nuclear factor kappa-B kinase subunit epsilon (Homo sapiens) (UniProt Q14164)", "sequence (Q14164 whole entry)": "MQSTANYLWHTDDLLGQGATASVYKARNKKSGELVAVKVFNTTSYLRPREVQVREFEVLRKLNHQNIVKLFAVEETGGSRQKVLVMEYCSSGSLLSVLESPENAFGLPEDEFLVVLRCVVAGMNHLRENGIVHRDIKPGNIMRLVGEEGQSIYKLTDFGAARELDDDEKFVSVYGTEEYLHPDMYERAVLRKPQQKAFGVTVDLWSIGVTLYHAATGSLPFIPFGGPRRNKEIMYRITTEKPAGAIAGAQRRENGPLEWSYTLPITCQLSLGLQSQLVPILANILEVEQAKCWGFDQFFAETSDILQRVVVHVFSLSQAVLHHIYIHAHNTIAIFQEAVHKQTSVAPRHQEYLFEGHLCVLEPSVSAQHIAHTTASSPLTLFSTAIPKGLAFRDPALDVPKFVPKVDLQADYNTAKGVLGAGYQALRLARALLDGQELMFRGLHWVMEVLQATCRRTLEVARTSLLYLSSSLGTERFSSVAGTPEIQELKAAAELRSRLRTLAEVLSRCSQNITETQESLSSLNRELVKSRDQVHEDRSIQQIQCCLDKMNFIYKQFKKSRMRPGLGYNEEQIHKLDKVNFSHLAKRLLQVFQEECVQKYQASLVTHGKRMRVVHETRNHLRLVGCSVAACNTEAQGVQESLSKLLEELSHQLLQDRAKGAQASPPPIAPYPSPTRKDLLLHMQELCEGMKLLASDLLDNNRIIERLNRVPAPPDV", "conditions": "Compound concentration 1000.0 nM"}, "[11]": {"target": "Dual specificity mitogen-activated protein kinase kinase 1 (Homo sapiens) (UniProt Q02750)", "sequence (Q02750 whole entry)": "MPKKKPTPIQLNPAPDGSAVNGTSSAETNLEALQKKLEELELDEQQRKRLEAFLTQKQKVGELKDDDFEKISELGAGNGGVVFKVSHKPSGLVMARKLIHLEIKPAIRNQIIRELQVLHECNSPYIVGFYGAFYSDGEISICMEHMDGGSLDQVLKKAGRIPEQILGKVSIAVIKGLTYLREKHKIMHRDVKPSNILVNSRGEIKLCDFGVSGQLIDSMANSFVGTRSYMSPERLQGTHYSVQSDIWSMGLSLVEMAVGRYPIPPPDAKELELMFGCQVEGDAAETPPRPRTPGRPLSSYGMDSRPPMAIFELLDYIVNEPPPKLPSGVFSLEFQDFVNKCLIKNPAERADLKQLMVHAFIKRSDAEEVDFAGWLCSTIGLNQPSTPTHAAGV", "conditions": "Compound concentration 1000.0 nM"}, "[12]": {"test_system": "Hepatocyte growth factor receptor (Homo sapiens), P08581 [M1250T]", "conditions": "Compound concentration 1000.0 nM"}, "[13]": {"target": "Mitogen-activated protein kinase 12 (Homo sapiens) (UniProt P53778)", "sequence (P53778 whole entry)": "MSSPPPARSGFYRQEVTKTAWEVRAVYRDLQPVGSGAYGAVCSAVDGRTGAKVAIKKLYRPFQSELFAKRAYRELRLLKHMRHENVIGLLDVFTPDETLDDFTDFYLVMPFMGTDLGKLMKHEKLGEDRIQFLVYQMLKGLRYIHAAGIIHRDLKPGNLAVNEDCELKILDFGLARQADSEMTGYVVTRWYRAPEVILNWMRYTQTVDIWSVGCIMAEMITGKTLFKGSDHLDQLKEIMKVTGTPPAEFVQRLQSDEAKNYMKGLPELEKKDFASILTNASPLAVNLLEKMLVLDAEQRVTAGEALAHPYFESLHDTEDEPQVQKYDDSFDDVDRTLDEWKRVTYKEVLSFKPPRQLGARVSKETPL", "conditions": "Compound concentration 1000.0 nM"}, "[14]": {"target": "Tyrosine-protein kinase HCK (Homo sapiens) (UniProt P08631)", "sequence (P08631 2-526 limits assumed)": "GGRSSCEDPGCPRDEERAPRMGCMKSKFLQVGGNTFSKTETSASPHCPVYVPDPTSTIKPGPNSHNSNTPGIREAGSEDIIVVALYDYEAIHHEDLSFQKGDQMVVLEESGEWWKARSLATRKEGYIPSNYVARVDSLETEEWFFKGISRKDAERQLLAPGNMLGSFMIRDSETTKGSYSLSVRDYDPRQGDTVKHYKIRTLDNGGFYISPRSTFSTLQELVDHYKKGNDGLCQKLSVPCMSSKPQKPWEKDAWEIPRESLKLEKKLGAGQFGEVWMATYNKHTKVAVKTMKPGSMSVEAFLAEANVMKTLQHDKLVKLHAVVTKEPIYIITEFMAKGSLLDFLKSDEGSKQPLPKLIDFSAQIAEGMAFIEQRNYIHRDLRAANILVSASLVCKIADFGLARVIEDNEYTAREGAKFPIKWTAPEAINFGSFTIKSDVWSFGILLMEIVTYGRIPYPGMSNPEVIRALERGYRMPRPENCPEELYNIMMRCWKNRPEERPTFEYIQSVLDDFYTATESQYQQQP", "conditions": "Compound concentration 1000.0 nM"}, "[15]": {"target": "Cyclin-dependent kinase 13 (Homo sapiens) (UniProt Q14004)", "conditions": "Compound concentration 1000.0 nM"}, "[16]": {"target": "Cyclin-dependent kinase 9 (Homo sapiens) (UniProt P50750)", "conditions": "Compound concentration 1000.0 nM"}, "[17]": {"target": "Epidermal growth factor receptor (Homo sapiens, UniProt P00533)", "conditions": "Compound concentration 1000.0 nM"}, "[18]": {"target": "T2, Protein kinase C epsilon type (Homo sapiens) (UniProt Q02156)", "T2 sequence (whole entry)": "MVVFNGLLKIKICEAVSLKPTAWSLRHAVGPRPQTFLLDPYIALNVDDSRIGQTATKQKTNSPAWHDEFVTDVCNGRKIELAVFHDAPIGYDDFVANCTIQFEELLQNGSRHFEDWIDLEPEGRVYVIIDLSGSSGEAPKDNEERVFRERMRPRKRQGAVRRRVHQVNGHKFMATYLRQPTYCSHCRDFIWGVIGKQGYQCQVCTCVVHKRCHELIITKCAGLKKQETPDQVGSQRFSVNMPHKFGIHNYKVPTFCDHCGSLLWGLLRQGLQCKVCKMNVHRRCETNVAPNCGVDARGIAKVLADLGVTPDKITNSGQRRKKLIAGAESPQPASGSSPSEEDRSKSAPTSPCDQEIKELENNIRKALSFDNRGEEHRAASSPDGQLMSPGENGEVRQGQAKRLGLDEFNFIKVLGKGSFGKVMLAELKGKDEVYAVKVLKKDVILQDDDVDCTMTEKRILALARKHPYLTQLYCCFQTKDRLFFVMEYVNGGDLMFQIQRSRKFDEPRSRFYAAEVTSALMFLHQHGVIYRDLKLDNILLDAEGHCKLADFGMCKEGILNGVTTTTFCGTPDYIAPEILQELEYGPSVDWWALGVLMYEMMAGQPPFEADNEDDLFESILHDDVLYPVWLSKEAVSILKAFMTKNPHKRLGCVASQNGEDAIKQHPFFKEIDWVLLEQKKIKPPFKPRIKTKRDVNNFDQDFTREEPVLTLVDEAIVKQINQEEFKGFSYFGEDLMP", "conditions": "Compound concentration 1000.0 nM"}, "[19]": {"target": "Ephrin type-A receptor 8 (Homo sapiens) (UniProt P29322)", "conditions": "Compound concentration 1000.0 nM"}, "[20]": {"target": "Dual specificity protein kinase CLK4 (Homo sapiens) (UniProt Q9HAZ1)", "conditions": "Compound concentration 1000.0 nM"}, "[21]": {"test_system": "Tyrosine-protein kinase ABL1 (Homo sapiens), P00519 [F317L]", "conditions": "Compound concentration 1000.0 nM"}, "[22]": {"target": "T3, 5-hydroxytryptamine receptor 2C (Homo sapiens, UniProt P28335)", "T3 sequence (P28335 whole entry)": "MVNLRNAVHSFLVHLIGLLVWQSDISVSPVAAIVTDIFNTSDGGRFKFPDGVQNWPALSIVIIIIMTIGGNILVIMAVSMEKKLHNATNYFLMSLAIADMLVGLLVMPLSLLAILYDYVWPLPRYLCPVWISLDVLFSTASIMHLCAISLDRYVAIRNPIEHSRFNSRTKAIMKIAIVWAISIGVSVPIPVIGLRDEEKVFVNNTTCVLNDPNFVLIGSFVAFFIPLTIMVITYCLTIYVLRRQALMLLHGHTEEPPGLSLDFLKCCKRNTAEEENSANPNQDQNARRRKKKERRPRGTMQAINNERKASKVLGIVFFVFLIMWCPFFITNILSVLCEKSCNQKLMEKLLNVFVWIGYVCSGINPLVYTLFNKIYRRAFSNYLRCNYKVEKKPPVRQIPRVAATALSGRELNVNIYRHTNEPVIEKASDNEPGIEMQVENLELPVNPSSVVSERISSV", "assay": "GPCRScan assay: inhibition of 5-HT2C", "parameters": "radioligand conc. used [nm] 1.0 – 2.5, parental cells HEK T", "conditions": "for pKi: read-out: Ki; for Ki: read-out: pKi (converted)"}, "[23]": {"target": "Ephrin type-B receptor 1 (Homo sapiens) (UniProt P54762)", "conditions": "Compound concentration 1000.0 nM"}},
  "note": "pKi: −log10 of the molar value.",
  "data": [
    {"smiles": "CNCc1ccccc1-c1csc([C@@H](C)Nc2nc(C)nc3cc(OC)c(OC)cc23)c1", "note": "[BAY-293]", "values": [
      {"measurement": "residual activity", "setting": "[1]", "result": 100, "unit": "%"},
      {"measurement": "residual activity", "setting": "[2]", "result": 98, "unit": "%"},
      {"measurement": "residual activity", "setting": "[3]", "result": 84, "unit": "%"},
      {"measurement": "residual activity", "setting": "[4]", "result": 88, "unit": "%"},
      {"measurement": "residual activity", "setting": "[5]", "result": 73, "unit": "%"},
      {"measurement": "residual activity", "setting": "[6]", "result": 69, "unit": "%"},
      {"measurement": "residual activity", "setting": "[7]", "result": 57, "unit": "%"},
      {"measurement": "inhibition", "setting": "[8]", "result": 56.5, "unit": "%"},
      {"measurement": "residual activity", "setting": "[9]", "result": 100, "unit": "%"},
      {"measurement": "residual activity", "setting": "[10]", "result": 71, "unit": "%"},
      {"measurement": "residual activity", "setting": "[11]", "result": 86, "unit": "%"},
      {"measurement": "residual activity", "setting": "[12]", "result": 79, "unit": "%"},
      {"measurement": "residual activity", "setting": "[13]", "result": 100, "unit": "%"},
      {"measurement": "residual activity", "setting": "[14]", "result": 97, "unit": "%"},
      {"measurement": "residual activity", "setting": "[15]", "result": 89, "unit": "%"},
      {"measurement": "residual activity", "setting": "[16]", "result": 100, "unit": "%"},
      {"measurement": "residual activity", "setting": "[17]", "result": 90, "unit": "%"},
      {"measurement": "residual activity", "setting": "[18]", "result": 74, "unit": "%"},
      {"measurement": "residual activity", "setting": "[19]", "result": 100, "unit": "%"},
      {"measurement": "residual activity", "setting": "[20]", "result": 100, "unit": "%"},
      {"measurement": "residual activity", "setting": "[21]", "result": 86, "unit": "%"},
      {"measurement": "pKi", "setting": "[22]", "result": 5.47},
      {"measurement": "Ki", "setting": "[22]", "result": 2880, "unit": "nM"},
      {"measurement": "residual activity", "setting": "[23]", "result": 100, "unit": "%"}
    ]},
    {"smiles": "CNCc1ccccc1-c1csc([C@H](C)Nc2nc(C)nc3cc(OC)c(OC)cc23)c1", "note": "[BAY-294]", "values": [
      {"measurement": "residual activity", "setting": "[1]", "result": 100, "unit": "%"},
      {"measurement": "residual activity", "setting": "[2]", "result": 100, "unit": "%"},
      {"measurement": "residual activity", "setting": "[3]", "result": 89, "unit": "%"},
      {"measurement": "residual activity", "setting": "[4]", "result": 90, "unit": "%"},
      {"measurement": "residual activity", "setting": "[5]", "result": 68, "unit": "%"},
      {"measurement": "residual activity", "setting": "[6]", "result": 84, "unit": "%"},
      {"measurement": "residual activity", "setting": "[7]", "result": 79, "unit": "%"},
      {"measurement": "inhibition", "setting": "[8]", "result": 93.8, "unit": "%"},
      {"measurement": "residual activity", "setting": "[9]", "result": 100, "unit": "%"},
      {"measurement": "residual activity", "setting": "[10]", "result": 85, "unit": "%"},
      {"measurement": "residual activity", "setting": "[11]", "result": 100, "unit": "%"},
      {"measurement": "residual activity", "setting": "[12]", "result": 96, "unit": "%"},
      {"measurement": "residual activity", "setting": "[13]", "result": 100, "unit": "%"},
      {"measurement": "residual activity", "setting": "[14]", "result": 98, "unit": "%"},
      {"measurement": "residual activity", "setting": "[15]", "result": 93, "unit": "%"},
      {"measurement": "residual activity", "setting": "[16]", "result": 100, "unit": "%"},
      {"measurement": "residual activity", "setting": "[17]", "result": 100, "unit": "%"},
      {"measurement": "residual activity", "setting": "[18]", "result": 78, "unit": "%"},
      {"measurement": "residual activity", "setting": "[19]", "result": 100, "unit": "%"},
      {"measurement": "residual activity", "setting": "[20]", "result": 100, "unit": "%"},
      {"measurement": "residual activity", "setting": "[21]", "result": 97, "unit": "%"},
      {"measurement": "pKi", "setting": "[22]", "result": 6.15},
      {"measurement": "Ki", "setting": "[22]", "result": 692, "unit": "nM"},
      {"measurement": "residual activity", "setting": "[23]", "result": 100, "unit": "%"}
    ]}
  ]
}
